Data set [1] is described as follows: Cytotoxicity in mock-infected HEL cells (MTS). As to conditions: human. Format: cell-based, human.
The subject of another data set is HCoV-229E. Nature of the data set: CPE reduction assay, HCoV-229E in HEL cells. Format: cell-based. As to conditions: Human coronavirus 229E, MTS, mean of 2–3 tests.
In a further data set the test system is E. faecium. Kind of data set: microbe, parasite or virus in culture. The note with it: Enterococcus faecium. Format: cell-based.
A further data set deals with S. epidermidis. Nature of the data set: microbe, parasite or virus in culture. The class given is cell-based. As to conditions: Staphylococcus epidermidis.
Another data set deals with S.pyogenes. Kind of data set: MIC, broth microdilution. As to conditions: Streptococcus pyogenes. The class given is cell-based. For orientation: Dilution methods test growth across graded concentrations, often in twofold steps.
A further data set concerns E. faecalis. Nature of the data set: MIC, broth microdilution. Format: cell-based. As to conditions: Enterococcus faecalis.
In a further data set the test system is S. haemolyticus. Kind of data set: MIC, broth microdilution. Format: cell-based. As to conditions: Staphylococcus haemolyticus.
The test system of a further data set is S. aureus. Nature of the data set: MIC, broth microdilution. Format: cell-based. The note with it: Staphylococcus aureus.
The subject of a further data set is S. aureus ATCC29213. Nature of the data set: Fluorescent competition assay, release of fluorescent vancomycin. The note with it: cells saturated with FL-VAN, Fig. 7 left panel.
The nature of data set [2]: Cytotoxicity in mock-infected VeroE6 cells (XTT). Format: cell-based, African green monkey. The note with it: African green monkey; mock-infected Vero E6 cells, three days, XTT. Background: Formazan colour is commonly taken as a measure of viable cells.
Another data set can be described thus: in vitro. The note with it: human.
Data set [3] relates to SARS-CoV-2. Kind of data set: microbe, parasite or virus in culture. The note with it: Severe acute respiratory syndrome coronavirus 2, 72 h; Calu-3 cells, three days, XTT; read-out: EC50, CPE reduction, SARS-CoV-2 in Calu-3 cells. The class given is cell-based.
In data set [4] the test system is SARS-CoV-2. Nature of the data set: microbe, parasite or virus in culture. The class given is cell-based. The note with it: Severe acute respiratory syndrome coronavirus 2, Vero C1008, 72 h; Vero E6 cells, three days, XTT; read-out: EC50, CPE reduction, SARS-CoV-2 in Vero E6 cells.

Consider 3 compounds from paper PMC9511441, “Semisynthetic teicoplanin derivatives with dual antimicrobial activity against SARS-CoV-2 and multiresistant bacteria” (Scientific Reports, 2022).

Converted amounts (≈) assume the structure as drawn. Like-named read-outs stand apart in the source and are kept apart here.

What is called EC50 is the concentration that produces a half-maximal response. In turn, `N#C[C@@]1(c2ccc3c(N)ncnn23)O[C@H](CO)[C@@H](O)[C@H]1O` [GS-441524, reference compound] gave a CC50 at 5 days in data set [1] greater than 40 µM. For the same compound, a half-maximal effect with HCoV-229E (EC50) was put at 3 µM.
For the compound `CN[C@H](CC(C)C)C(=O)N[C@H]1C(=O)N[C@@H](CC(N)=O)C(=O)N[C@H]2C(=O)N[C@H]3C(=O)N[C@H](C(=O)N[C@H](C(=O)O)c4cc(O)cc(O)c4-c4cc3ccc4O)[C@H](O[C@H]3C[C@](C)(N)[C@@H](O)[C@H](C)O3)c3ccc(c(Cl)c3)Oc3cc2cc(c3O[C@@H]2O[C@H](CO)[C@@H](O)[C@H](O)[C@H]2O[C@H]2C[C@](C)(NCc3ccc(-c4ccc(Cl)cc4)cc3)[C@@H](O)[C@H](C)O2)Oc2ccc(cc2Cl)[C@H]1O` [ORI, oritavancin, reference compound], the MIC turned out to be 0.12 µg/mL (≈ 0.0669 µM) in the data set with E. faecium (read-out: Average MIC value, E. faecium VAN^R,TEI^R/VanA, 8 strains); 0.0625 µg/mL (≈ 0.0349 µM) with E. faecium (read-out: Average MIC value, E. faecium VAN^S, TEI^S, 1 strain); 0.125 µg/mL (≈ 0.0697 µM) in the data set with E. faecium (read-out: MIC value, E.faecium E335, VAN,TEI,LNZ/VanA); 0.0625 µg/mL (≈ 0.0349 µM) in the data set with E. faecium (read-out: MIC value, E.faecium E355, VAN,TEI,LNZ/VanA); 0.125 µg/mL (≈ 0.0697 µM) with E. faecium (read-out: MIC value, E.faecium E832, VAN,TEI,LNZ/VanA); 0.0625 µg/mL (≈ 0.0349 µM) with E. faecium (read-out: MIC value, E.faecium E854, VAN,TEI,LNZ/VanA). In addition, the MIC with E. faecium (read-out: MIC value, E.faecium E859, VAN,TEI,LNZ/VanA) is 0.0625 µg/mL (≈ 0.0349 µM); with E. faecium (read-out: MIC value, E.faecium E1114, VAN,TEI,LNZ/VanA), 0.25 µg/mL (≈ 0.139 µM); in the data set on E. faecium (read-out: MIC value, E.faecium E1131, VAN,TEI,LNZ/VanA) it was 0.125 µg/mL (≈ 0.0697 µM); with E. faecium (read-out: MIC value, E.faecium E1132, VAN,TEI,LNZ/VanA), 0.125 µg/mL (≈ 0.0697 µM); in the data set with E. faecium (read-out: MIC value, E.faecium TX0016), 0.0625 µg/mL (≈ 0.0349 µM); in the data set on S. epidermidis (read-out: Average MIC value, S. epidermidis mecA, 6 strains), 1.2 µg/mL (≈ 0.669 µM). For the same compound, the MIC with S. epidermidis (read-out: MIC value, S.epidermidis ORI_R1, mecA) is 4 µg/mL (≈ 2.23 µM); with S. epidermidis (read-out: MIC value, S.epidermidis ORI_R2, mecA), 0.5 µg/mL (≈ 0.279 µM); with S. epidermidis (read-out: MIC value, S.epidermidis ORI_R3, mecA) it was 2 µg/mL (≈ 1.12 µM); in the data set with S. epidermidis (read-out: MIC value, S.epidermidis ORI_R4, mecA), 0.5 µg/mL (≈ 0.279 µM); in the data set on S. epidermidis (read-out: MIC value, S.epidermidis TEI_R1, mecA) it was 0.125 µg/mL (≈ 0.0697 µM); in the data set with S. epidermidis (read-out: MIC value, S.epidermidis TEI_R2, mecA), 0.125 µg/mL (≈ 0.0697 µM). The MIC with S.pyogenes (read-out: MIC value, S.pyogenes H232) came out at 0.125 µg/mL (≈ 0.0697 µM); with S.pyogenes (read-out: MIC value, S.pyogenes H550), 0.0625 µg/mL (≈ 0.0349 µM); with S.pyogenes (read-out: MIC value, S.pyogenes H578) it was 0.0625 µg/mL (≈ 0.0349 µM); with E. faecalis (read-out: Average MIC value, E. faecalis VAN^R,TEI^R/VanA, 1 strain), 0.125 µg/mL (≈ 0.0697 µM); with E. faecalis (read-out: Average MIC value, E. faecalis VAN^S, TEI^S, 2 strains), 0.0625 µg/mL (≈ 0.0349 µM); in the data set with E. faecalis (read-out: MIC value, E.faecalis JH2-2), 0.0625 µg/mL (≈ 0.0349 µM). In addition, the MIC turned out to be 0.0625 µg/mL (≈ 0.0349 µM) in the data set with E. faecalis (read-out: MIC value, E.faecalis OG1RF); 0.125 µg/mL (≈ 0.0697 µM) with E. faecalis (read-out: MIC value, E.faecalis V583, VAN,TEI/VanA); 0.24 µg/mL (≈ 0.134 µM) with S. haemolyticus (S. haemolyticus mecA, 6 strains, read-out: Average MIC value); 0.25 µg/mL (≈ 0.139 µM) with S. haemolyticus (S.haemolyticus DALB_R1, mecA, read-out: MIC value); 0.25 µg/mL (≈ 0.139 µM) with S. haemolyticus (S.haemolyticus DALB_R2, mecA, read-out: MIC value); 0.25 µg/mL (≈ 0.139 µM) with S. haemolyticus (S.haemolyticus DALB_R3, mecA, read-out: MIC value). Besides, the MIC in the data set with S. haemolyticus (S.haemolyticus DALB_R4, mecA, read-out: MIC value) was 0.0625 µg/mL (≈ 0.0349 µM); with S. haemolyticus (S.haemolyticus DALB_R5, mecA, read-out: MIC value), 0.125 µg/mL (≈ 0.0697 µM); with S. haemolyticus (S.haemolyticus ORI_R1, mecA, read-out: MIC value), 0.5 µg/mL (≈ 0.279 µM); in the data set on S. aureus (ATCC 29213 / MSSA, read-out: MIC value, S. aureus ATCC29213, MSSA), 0.125 µg/mL (≈ 0.0697 µM); with S. aureus (MRSA / USA300, read-out: MIC value, S. aureus USA300, CA-MRSA), 0.0625 µg/mL (≈ 0.0349 µM); in the data set with S. aureus (MRSA, read-out: Average MIC value, S. aureus CA-MRSA, 1 strain), 0.0625 µg/mL (≈ 0.0349 µM). For the same compound, the MIC worked out at 0.14 µg/mL (≈ 0.0781 µM) with S. aureus (MRSA, read-out: Average MIC value, S. aureus MRSA, 7 strains); 0.125 µg/mL (≈ 0.0697 µM) in the data set with S. aureus (MRSA, read-out: MIC value, S. aureus 73OL, MRSA); 0.125 µg/mL (≈ 0.0697 µM) in the data set on S. aureus (MRSA, read-out: MIC value, S. aureus 214OL, MRSA); 0.125 µg/mL (≈ 0.0697 µM) with S. aureus (MRSA, read-out: MIC value, S. aureus 1041OL, MRSA); 0.125 µg/mL (≈ 0.0697 µM) in the data set on S. aureus (MRSA, read-out: MIC value, S. aureus A6918, MRSA); 0.125 µg/mL (≈ 0.0697 µM) in the data set with S. aureus (MRSA, read-out: MIC value, S. aureus A6919, MRSA). Besides, the MIC with S. aureus (MRSA, read-out: MIC value, S. aureus Mu50, MRSA) worked out at 0.25 µg/mL (≈ 0.139 µM); in the data set on S. aureus (MRSA, read-out: MIC value, S. aureus N315, MRSA), 0.125 µg/mL (≈ 0.0697 µM); in the data set on S. aureus (MSSA / NEWMAN, read-out: MIC value, S. aureus Newman, MSSA), 0.0625 µg/mL (≈ 0.0349 µM); in the data set with S. aureus (MSSA, read-out: Average MIC value, S. aureus MSSA, 4 strains) it was 0.078 µg/mL (≈ 0.0435 µM); in the data set with S. aureus (MSSA, read-out: MIC value, S. aureus MSSA476, MSSA), 0.0625 µg/mL (≈ 0.0349 µM); in the data set with S. aureus (MSSA, read-out: MIC value, S. aureus SA564, MSSA), 0.0625 µg/mL (≈ 0.0349 µM). Further, in the data set on S. aureus ATCC29213, the “Outcompeting fluorescent vancomycin from S. aureus (in words)” value is recorded as “less pronounced”.
As to `CCC(CC)COC(=O)[C@H](C)N[P@](=O)(OC[C@H]1O[C@@](C#N)(c2ccc3c(N)ncnn23)[C@H](O)[C@@H]1O)Oc1ccccc1` [Remdesivir, remdesivir, reference compound], the CC50 in [2] is greater than 100 µM; in “in vitro”, greater than 50 µM. Moreover, the values for the EC50 with SARS-CoV-2 [3] and in the data set on SARS-CoV-2 [4] were 0.3 ± 0.03 µM and 2.5 ± 0.2 µM, respectively.
